Data reported in PubChem BioAssay (NCI).
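Abbreviation: GI50, concentration required for 50% inhibition of growth. Definition used: TGI = concentration required for complete inhibition of growth.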

What was measured:
Test in all cases: growth of human tumour cells (NCI), 384-well format
786-0 renal = system: 786-0 renal
A498 renal = system: A498 renal
A549 NSCLC = system: A549 NSCLC
ACHN renal = system: ACHN renal
BT-549 breast = system: BT-549 breast
CAKI-1 renal = system: CAKI-1 renal
CCRF-CEM leukemia = system: CCRF-CEM leukemia
COLO 205 colon = system: COLO 205 colon
DU-145 prostate = system: DU-145 prostate
EKVX NSCLC = system: EKVX NSCLC
HCC-2998 colon = system: HCC-2998 colon
HCT-116 colon = system: HCT-116 colon
HCT-15 colon = system: HCT-15 colon
HL-60(TB) leukemia = system: HL-60(TB) leukemia
HOP-62 NSCLC = system: HOP-62 NSCLC
HOP-92 NSCLC = system: HOP-92 NSCLC
HS 578T breast = system: HS 578T breast
HT29 colon = system: HT29 colon
IGROV1 ovarian = system: IGROV1 ovarian
K-562 leukemia = system: K-562 leukemia
KM12 colon = system: KM12 colon
LOX IMVI melanoma = system: LOX IMVI melanoma
M14 melanoma = system: M14 melanoma
MALME-3M melanoma = system: MALME-3M melanoma
MCF7 breast = system: MCF7 breast
MDA-MB-231 breast = system: MDA-MB-231 breast
MDA-MB-435 melanoma = system: MDA-MB-435 melanoma
MDA-MB-468 breast = system: MDA-MB-468 breast
MOLT-4 leukemia = system: MOLT-4 leukemia
NCI-H226 lung = system: NCI-H226 lung
NCI-H23 lung = system: NCI-H23 lung
NCI-H322M lung = system: NCI-H322M lung
NCI-H460 NSCLC = system: NCI-H460 NSCLC
NCI-H522 lung = system: NCI-H522 lung
NCI/ADR-RES ovarian = system: NCI/ADR-RES ovarian
OVCAR-3 ovarian = system: OVCAR-3 ovarian
OVCAR-4 ovarian = system: OVCAR-4 ovarian
OVCAR-8 ovarian = system: OVCAR-8 ovarian
PC-3 prostate = system: PC-3 prostate
RPMI-8226 leukemia = system: RPMI-8226 leukemia
RXF 393 renal = system: RXF 393 renal
SF-268 CNS = system: SF-268 CNS
SF-295 CNS = system: SF-295 CNS
SF-539 CNS = system: SF-539 CNS
SK-MEL-28 melanoma = system: SK-MEL-28 melanoma
SK-MEL-5 melanoma = system: SK-MEL-5 melanoma
SK-OV-3 ovarian = system: SK-OV-3 ovarian
SN12C renal = system: SN12C renal
SNB-19 CNS = system: SNB-19 CNS
SNB-75 CNS = system: SNB-75 CNS
SW-620 colon = system: SW-620 colon
T-47D breast = system: T-47D breast
TK-10 renal = system: TK-10 renal
U251 glioblastoma = system: U251 glioblastoma
UACC-257 melanoma = system: UACC-257 melanoma
UACC-62 melanoma = system: UACC-62 melanoma
UO-31 renal = system: UO-31 renal

NC(=O)/C(=C/n1cnc(-c2cc(C(F)(F)F)cc(C(F)(F)F)c2)n1)c1cncnc1
GI50 ([…]-0 renal): 50.4 nM
TGI (786-0 renal): 1220 nM
GI50 (A498 renal): 42 nM
TGI (A498 renal): 232 nM
GI50 (A549 NSCLC): 196 nM
TGI (A549 NSCLC): 1640 nM
GI50 (ACHN renal): 329 nM
TGI (ACHN renal): 2670 nM
GI50 (BT-549 breast): 12.1 nM
TGI (BT-549 breast): 45.5 nM
GI50 (CAKI-1 renal): 22 nM
TGI (CAKI-1 renal): 1340 nM
GI50 (CCRF-CEM leukemia): 47.4 nM
TGI (CCRF-CEM leukemia): 188 nM
GI50 (COLO 205 colon): 44.1 nM
TGI (COLO 205 colon): 1740 nM
GI50 (DU-145 prostate): 235 nM
TGI (DU-145 prostate): 3940 nM
GI50 (EKVX NSCLC): 591 nM
TGI (EKVX NSCLC): 4140 nM
GI50 (HCC-2998 colon): 60.5 nM
TGI (HCC-2998 colon): 287 nM
GI50 (HCT-116 colon): 40.1 nM
TGI (HCT-116 colon): 232 nM
GI50 (HCT-15 colon): 92.7 nM
TGI (HCT-15 colon): 1180 nM
GI50 (HL-60(TB) leukemia): 15.3 nM
TGI (HL-60(TB) leukemia): 131 nM
GI50 (HOP-62 NSCLC): 229 nM
TGI (HOP-62 NSCLC): 995 nM
GI50 (HOP-92 NSCLC): 438 nM
TGI (HOP-92 NSCLC): 2060 nM
GI50 (HS 578T breast): 33 nM
TGI (HS 578T breast): 244 nM
GI50 (HT29 colon): 65.6 nM
TGI (HT29 colon): 943 nM
GI50 (IGROV1 ovarian): 296 nM
TGI (IGROV1 ovarian): 2130 nM
GI50 (K-562 leukemia): 37.2 nM
TGI (K-562 leukemia): 1030 nM
GI50 (KM12 colon): 191 nM
TGI (KM12 colon): 1930 nM
GI50 (LOX IMVI melanoma): 144 nM
TGI (LOX IMVI melanoma): 687 nM
GI50 (M14 melanoma): 146 nM
TGI (M14 melanoma): 485 nM
GI50 (MALME-3M melanoma): 32.2 nM
TGI (MALME-3M melanoma): 483 nM
GI50 (MCF7 breast): 47.8 nM
TGI (MCF7 breast): 10900 nM
GI50 (MDA-MB-231 breast): 29.5 nM
TGI (MDA-MB-231 breast): 253 nM
GI50 (MDA-MB-435 melanoma): 40.9 nM
TGI (MDA-MB-435 melanoma): 170 nM
GI50 (MDA-MB-468 breast): 73 nM
TGI (MDA-MB-468 breast): 247 nM
GI50 (MOLT-4 leukemia): 14.5 nM
TGI (MOLT-4 leukemia): 28.2 nM
GI50 (NCI-H226 lung): 31.6 nM
TGI (NCI-H226 lung): 400 nM
GI50 (NCI-H23 lung): 71.3 nM
TGI (NCI-H23 lung): 1120 nM
GI50 (NCI-H322M lung): 297 nM
TGI (NCI-H322M lung): 2900 nM
GI50 (NCI-H460 NSCLC): 29.6 nM
TGI (NCI-H460 NSCLC): 131 nM
GI50 (NCI-H522 lung): 24.9 nM
TGI (NCI-H522 lung): 184 nM
GI50 (NCI/ADR-RES ovarian): 222 nM
TGI (NCI/ADR-RES ovarian): 1680 nM
GI50 (OVCAR-3 ovarian): 28 nM
TGI (OVCAR-3 ovarian): 171 nM
GI50 (OVCAR-4 ovarian): 249 nM
TGI (OVCAR-4 ovarian): 780 nM
GI50 (OVCAR-8 ovarian): 37.8 nM
TGI (OVCAR-8 ovarian): 1050 nM
GI50 (PC-3 prostate): 26.1 nM
TGI (PC-3 prostate): 110 nM
TGI (RPMI-8226 leukemia): 24.1 nM
GI50 (RXF 393 renal): 24.4 nM
TGI (RXF 393 renal): 116 nM
GI50 (SF-268 CNS): 26.7 nM
TGI (SF-268 CNS): 95.3 nM
GI50 (SF-295 CNS): 327 nM
TGI (SF-295 CNS): 2690 nM
GI50 (SF-539 CNS): 27.5 nM
TGI (SF-539 CNS): 84 nM
GI50 (SK-MEL-28 melanoma): 106 nM
TGI (SK-MEL-28 melanoma): 372 nM
GI50 (SK-MEL-5 melanoma): 192 nM
TGI (SK-MEL-5 melanoma): 1190 nM
GI50 (SK-OV-3 ovarian): 92.2 nM
TGI (SK-OV-3 ovarian): 8970 nM
GI50 (SN12C renal): 598 nM
TGI (SN12C renal): 2260 nM
GI50 (SNB-19 CNS): 188 nM
TGI (SNB-19 CNS): 1880 nM
GI50 (SNB-75 CNS): 15.4 nM
TGI (SNB-75 CNS): 41.9 nM
GI50 (SW-620 colon): 41 nM
TGI (SW-620 colon): 1410 nM
GI50 (T-47D breast): 192 nM
TGI (T-47D breast): 1580 nM
GI50 (TK-10 renal): 47.5 nM
TGI (TK-10 renal): 1350 nM
GI50 (U251 glioblastoma): 120 nM
TGI (U251 glioblastoma): 785 nM
GI50 (UACC-257 melanoma): 591 nM
TGI (UACC-257 melanoma): 2120 nM
GI50 (UACC-62 melanoma): 57.2 nM
TGI (UACC-62 melanoma): 241 nM
GI50 (UO-31 renal): 269 nM
TGI (UO-31 renal): 1570 nM
